Measurements: US20100278733A1, “COMPOSITION FOR DIAGNOSIS OF AMYLOID-RELATED DISEASE” (priority 2007, published 2010)
Values belong to the compound of their own block, whether it stands above or below them.

Legend:
[1] = In-vivo radioactivity distribution experiment using normal mice (Example 2); settings: Example 2 numbering; for In-vivo radioactivity distribution: blood / In-vivo radioactivity distribution: brain / In-vivo radioactivity distribution: heart / In-vivo radioactivity distribution: intestine / In-vivo radioactivity distribution: kidney / In-vivo radioactivity distribution: liver / In-vivo radioactivity distribution: lung / In-vivo radioactivity distribution: pancreas / In-vivo radioactivity distribution: spleen / In-vivo radioactivity distribution: stomach: normal mice, intravenous
Method: Radioactive iodine labeling compounds were diluted with physiological saline containing 10% EtOH. To each of four or five 5-week-old male ddY mice (20 to 25 g) per group, […] of a labeled compound, [^125I]Compound 7, 10, 13, or 14 (0.2 to 0.4 mCi), was administered from the caudal vein. Animals were decapitated at 2, 10, 30, or 60 min, blood was collected, the major organs were isolated, and then weights and radioactivities thereof were measured.

Aβ(1-42) aggregate [2] = molecular target: T1, Aβ(1-42) aggregate (Homo sapiens, UniProt P05067); assay: Binding inhibition experiment using Aβ(1-42) aggregate, Ki values (Example 2); settings: radioactive ligand [^125I]CL-NMe2; mean ± standard error of 3 experiments (compound 4: 6 experiments); compound numbers of Example 2; read-out: Ki values calculated by inhibition experiment
T1 construct: Amyloid β protein (Human, 1-42) [TFA form] was purchased from Peptide Institute, Inc; purchased Peptide Institute, Inc
Method: As a radioactive iodine-125 (^125I), Iodine-125 (3.7 GBq/mL) manufactured by MP Biomedicals, Inc. was used. Reverse phase HPLC was performed at a flow rate of 1.0 mL/min using a Cosmosil 5C18-AR-II column (4.6×150 mm) manufactured by Nacalai Tesque Inc. and ultrapure water:acetonitrile=3:7 as an elution solvent. ^1HNMR was measured using Varian Gemini 300 and tetramethylsilane as an internal standard substance. Mass spectrometry was performed using JEOL IMS-DX300. Preparative TLC was performed using 12 PLC plates 20×20-cm-Silica gel 60 F254, 2 mm manufactured by MERCK. Amyloid β protein (Human, 1-42) was purchased from Peptide Institute, Inc., and special grade reagents were used as other reagents.
(§1) Aβ(1-42) was dissolved in 10 mM phosphate buffer containing 1 mM EDTA (pH 7.4) at a concentration of 0.25 mg/mL, and the mixture was incubated at 37° C. for 42 h to prepare an Aβ(1-42) aggregate.
[…] of 10% EtOH solution, […] of a solution of [^125I]4-diethylamino-4′-iodochalcone ([^125I]CL-NMe2) in 10% ethanol, and […] of a sample solution at various concentrations (0 to 20 mM) were mixed, […] of an Aβ(1-42) aggregate solution was finally added, and the mixture was allowed to stand at room temperature for 3 h. Aβ(1-42) aggregate-bound compounds and nonbound compounds were separated with a Brandel M-24R cell harvester using a Whatman GF/B filter. Radioactivities remaining on the filter after filtration were measured with a γ-counter, and inhibition curves were created using Graph Pad Prism 4.0 to calculate inhibition constants (Ki values).

[3] = test system: senile plaque amyloid and vascular amyloid; assay: Fluorescence staining experiment using brain tissue sections of Alzheimer's disease model mice; assay type: binding, APP/PS1 double transgenic mouse; settings: in words; 100 μM in 50% aqueous ethanol, fluorescence microscope, FIG. 11
Method: As an Alzheimer's disease model mouse, APP/PS1 double transgenic mouse was used. The brain was removed, immobilized with 10% formaldehyde, dehydrated with alcohol and xylene, and then paraffin-embedded. The paraffin-embedded brain tissue was cut into a 5-μm section, and the section was treated with xylene, alcohol, and water and deparaffinized. The section was incubated in PBS for 30 min and then in solutions of various chalcone derivatives (100 μM) in 50% aqueous ethanol for 10 min. The section was washed with 50% ethanol and PBS and then examined with a fluorescence microscope (Leica TCS SP2).

Aβ(1-42) aggregate [4] = molecular target: T1, Aβ(1-42) aggregate; assay: Examination of binding site by binding inhibition experiment using Aβ(1-42) aggregate (Example 2); settings: FIG. 10, compound numbers of Example 2, read-out: Ki for inhibition of binding of [^125I]CL-NMe2 to the Aβ(1-42) aggregate
Method: as §1
850 mL of 10% EtOH solution, […] of [^125I]CL-NMe2 solution, […] of a solution of congo red, thioflavine T, or compound 14 at various concentrations (0 to 20 mM) were mixed, […] of an Aβ(1-42) aggregate solution was finally added, and the mixture was allowed to stand at room temperature for 3 h. Aβ(1-42) aggregate-bound compounds and nonbound compounds were separated with a Brandel M-24R cell harvester using a Whatman GF/B filter. Radioactivities remaining on the filter after filtration were measured with a γ-counter, and inhibition curves were created using Graph Pad Prism 4.0 to calculate inhibition constants.

Aβ(1-40) aggregate = molecular target: T2, Aβ(1-40) aggregate (Homo sapiens, UniProt P05067); assay: In-vitro binding experiment of chalcone derivatives using Aβ aggregate (Reference Example 1); settings: in words; radioactivity on filter in presence vs absence of Aβ aggregate, FIG. 14; compound numbers of Reference Example 1
T2 construct: Amyloid β protein (Human, 1-40) [HCl form]; purchased Peptide Institute, Inc
Method: As a radioactive iodine-125 (^125I), IODINE-125 (74 MBq) manufactured by Amersham Biosciences was used. Reverse phase HPLC was performed at a flow rate of 1.0 mL/min using Cosmosil 5C18-AR Column (4.6×150 mm) manufactured by Nacalai Tesque Inc. and ultrapure water (A) and acetonitrile (B) (A:B=40:60) as an elution solvent. ^1H-NMR was measured using Varian Gemini 300 and tetramethylsilane as an internal standard substance. Mass spectrometry was performed using JEOL IMS-DX300. Amyloid β protein (Human, 1-40) [HCl form] and Amyloid β protein (Human, 1-42) [TFA form] were purchased from Peptide Institute, Inc., and special grade reagents were used as other reagents.
The Aβ aggregate was dissolved in a buffer containing 10 mM sodium phosphate and 1 mM EDTA (pH 7.4) at a concentration of 0.5 mg/mL, and the mixture was incubated at 37° C. for 36 to 42 h. The binding experiment was performed using 12×75 mm borosilicate glass tubes. 900 μL of 10% ethanol solution, 50 μL (57 nM) of an Aβ(1-40) aggregate solution, and 50 μL of [^125I]Compound 7 or 12 having various concentrations were mixed, and the mixture was allowed to stand at room temperature for 3 h. […] The radioactivities of substances remaining in the filter used for filtration were measured with a γ counter.

T1 sequence (P05067 672-713 limits assumed): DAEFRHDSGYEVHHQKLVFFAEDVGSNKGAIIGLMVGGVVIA
T2 sequence (P05067 672-711 limits assumed): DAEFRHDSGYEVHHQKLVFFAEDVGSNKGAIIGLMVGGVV

- stability in the organism ([1]; in words: radioactivity accumulation in the stomach, retention in blood, deiodination): instability in the organism
- In-vivo radioactivity distribution: blood ([1]; 2 min): 4.91 (0.71) percent of the dose/g
- In-vivo radioactivity distribution: brain ([1]; 2 min): 2.40 (0.30) percent of the dose/g
- In-vivo radioactivity distribution: heart ([1]; 2 min): 5.05 (0.95) percent of the dose/g
- In-vivo radioactivity distribution: intestine ([1]; 2 min): 1.73 (0.21) percent of the dose/g
- In-vivo radioactivity distribution: kidney ([1]; 2 min): 7.41 (1.54) percent of the dose/g
- In-vivo radioactivity distribution: liver ([1]; 2 min): 9.57 (2.00) percent of the dose/g
- In-vivo radioactivity distribution: lung ([1]; 2 min): 8.29 (0.99) percent of the dose/g
- In-vivo radioactivity distribution: pancreas ([1]; 2 min): 3.82 (0.57) percent of the dose/g
- In-vivo radioactivity distribution: spleen ([1]; 2 min): 4.05 (0.63) percent of the dose/g
- In-vivo radioactivity distribution: stomach ([1]; 2 min): 1.21(0.27) percent of the dose
- In-vivo radioactivity distribution: blood ([1]; 10 min): 3.58 (0.35) percent of the dose/g
- In-vivo radioactivity distribution: brain ([1]; 10 min): 0.75 (0.31) percent of the dose/g
- In-vivo radioactivity distribution: heart ([1]; 10 min): 3.02 (0.60) percent of the dose/g
- In-vivo radioactivity distribution: intestine ([1]; 10 min): 2.57 (0.53) percent of the dose/g
- In-vivo radioactivity distribution: kidney ([1]; 10 min): 4.66 (0.68) percent of the dose/g
- In-vivo radioactivity distribution: liver ([1]; 10 min): 7.10 (1.08) percent of the dose/g
- In-vivo radioactivity distribution: lung ([1]; 10 min): 5.17 (0.69) percent of the dose/g
- In-vivo radioactivity distribution: pancreas ([1]; 10 min): 1.94 (0.80) percent of the dose/g
- In-vivo radioactivity distribution: spleen ([1]; 10 min): 5.48 (1.02) percent of the dose/g
- In-vivo radioactivity distribution: stomach ([1]; 10 min): 5.29 (1.24) percent of the dose
- In-vivo radioactivity distribution: blood ([1]; 30 min): 2.92 (0.60) percent of the dose/g
- In-vivo radioactivity distribution: brain ([1]; 30 min): 0.31 (0.04) percent of the dose/g
- In-vivo radioactivity distribution: heart ([1]; 30 min): 1.48 (0.78) percent of the dose/g
- In-vivo radioactivity distribution: intestine ([1]; 30 min): 4.05 (0.99) percent of the dose/g
- In-vivo radioactivity distribution: kidney ([1]; 30 min): 4.31 (1.01) percent of the dose/g
- In-vivo radioactivity distribution: liver ([1]; 30 min): 5.95 (1.19) percent of the dose/g
- In-vivo radioactivity distribution: lung ([1]; 30 min): 3.53 (0.35) percent of the dose/g
- In-vivo radioactivity distribution: pancreas ([1]; 30 min): 1.95 (0.32) percent of the dose/g
- In-vivo radioactivity distribution: spleen ([1]; 30 min): 5.01 (1.72) percent of the dose/g
- In-vivo radioactivity distribution: stomach ([1]; 30 min): 9.81 (6.47) percent of the dose
- In-vivo radioactivity distribution: blood ([1]; 60 min): 2.63 (0.45) percent of the dose/g
- In-vivo radioactivity distribution: brain ([1]; 60 min): 0.21 (0.02) percent of the dose/g
- In-vivo radioactivity distribution: heart ([1]; 60 min): 1.65 (0.24) percent of the dose/g
- In-vivo radioactivity distribution: intestine ([1]; 60 min): 4.69 (1.64) percent of the dose/g
- In-vivo radioactivity distribution: kidney ([1]; 60 min): 2.44 (0.35) percent of the dose/g
- In-vivo radioactivity distribution: liver ([1]; 60 min): 4.96 (1.27) percent of the dose/g
- In-vivo radioactivity distribution: lung ([1]; 60 min): 2.87 (0.46) percent of the dose/g
- In-vivo radioactivity distribution: pancreas ([1]; 60 min): 1.86 (0.27) percent of the dose/g
- In-vivo radioactivity distribution: spleen ([1]; 60 min): 3.03 (0.31) percent of the dose/g
- In-vivo radioactivity distribution: stomach ([1]; 60 min): 8.73 (4.21) percent of the dose
- Ki (Aβ(1-42) aggregate [2]): 3.9 ± 0.4 nM
- Ki (Aβ(1-42) aggregate [4]): 4 nM
SMILES: CN(C)c1ccc(C=CC(=O)c2ccc(I)s2)cc1 [Compound 14 in Example 2, 1-(5-iodo-2-thienyl)-3-(4-dimethylaminophenyl)-prop-2-en-1-one]
- binding property to senile plaque amyloid and vascular amyloid on brain tissue sections [3]: stronger than that of fluorine-containing chalcone derivatives

- binding property to the Aβ aggregate (Aβ(1-40) aggregate): strong binding property
SMILES: CN(C)c1ccc(/C=C/C(=O)c2ccc(I)cc2)cc1 [Compound 12 in Reference Example 1]
